From publication PMC2808337, “Lactococcus lactis, an Alternative System for Functional Expression of Peripheral and Intrinsic Arabidopsis Membrane Proteins” (PLoS ONE, 2010) come the findings set out here.

Assay [1] addresses T1, AtAATP1 (Arabidopsis thaliana, UniProt Q39002).
T1 construct: gene AATP1; N-terminal attB-encoded extension, C-terminal Strep-tag II; in intact Lactococcus lactis NZ9000 cells
T1 sequence (Q39002 81-624): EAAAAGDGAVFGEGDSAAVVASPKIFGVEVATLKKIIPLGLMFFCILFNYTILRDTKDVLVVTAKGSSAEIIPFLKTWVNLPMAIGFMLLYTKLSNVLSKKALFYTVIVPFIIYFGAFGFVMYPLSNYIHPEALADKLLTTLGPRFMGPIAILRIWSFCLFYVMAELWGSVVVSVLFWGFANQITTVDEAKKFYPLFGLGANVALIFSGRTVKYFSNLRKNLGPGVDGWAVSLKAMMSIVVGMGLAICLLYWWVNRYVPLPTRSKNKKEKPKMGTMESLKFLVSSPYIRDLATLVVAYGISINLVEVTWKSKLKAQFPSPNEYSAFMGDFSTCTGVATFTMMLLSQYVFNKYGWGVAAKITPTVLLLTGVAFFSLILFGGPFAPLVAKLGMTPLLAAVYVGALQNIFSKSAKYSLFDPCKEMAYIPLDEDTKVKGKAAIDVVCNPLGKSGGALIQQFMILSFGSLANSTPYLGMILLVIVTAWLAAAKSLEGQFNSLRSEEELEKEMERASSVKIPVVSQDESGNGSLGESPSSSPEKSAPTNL
As to the kind of experiment: radioactive ATP uptake into intact L. lactis cells, filtration. Type of assay: cell-based. Particulars: 50 µM [α-32P]ATP, 50 mM potassium phosphate pH 7.0, 25 °C; empty-vector control; labelled compound.

In assay [2] the target is T2, ceQORH (Arabidopsis thaliana, UniProt Q9SV68).
T2 construct: mostly monomer, expected mass 34 kDa
T2 sequence (Q9SV68 1-329): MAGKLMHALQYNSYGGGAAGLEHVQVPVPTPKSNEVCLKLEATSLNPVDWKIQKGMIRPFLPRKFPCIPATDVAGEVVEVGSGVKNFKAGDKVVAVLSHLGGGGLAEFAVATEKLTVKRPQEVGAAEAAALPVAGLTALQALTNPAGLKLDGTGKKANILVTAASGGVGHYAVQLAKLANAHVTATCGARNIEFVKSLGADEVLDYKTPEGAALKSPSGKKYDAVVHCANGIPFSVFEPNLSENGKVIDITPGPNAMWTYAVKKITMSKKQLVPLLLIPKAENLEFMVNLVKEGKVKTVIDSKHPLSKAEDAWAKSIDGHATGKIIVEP
Kind of assay: spectrophotometric NBT reduction to formazan, […] nm. Type of assay: biochemical. Particulars: 100 µM NBT, 100 µM NADPH, soybean lipids, 10 mM Tris-HCl pH 8.0, artificial electron acceptor.

On to `Nc1ncnc2c1ncn2[C@@H]1O[C@H](COP(=O)(O)OP(=O)(O)OP(=O)(O)O)[C@@H](O)[C@H]1O` [[α-32P] ATP], for which, in assay [1], the “radioactive ATP uptake into intact L. lactis cells, filtration” value is reported as “recombinant AtAATP1 protein produced in L. lactis is able to transport ATP”. Take `COc1cc(-c2ccc(-[n+]3nc(-c4ccccc4)nn3-c3ccc([N+](=O)[O-])cc3)c(OC)c2)ccc1-[n+]1nc(-c2ccccc2)nn1-c1ccc([N+](=O)[O-])cc1` [NBT]: the “spectrophotometric NBT reduction to formazan, 550 nm” value in assay [2] was “the ceQORH protein, in combination with lipids and NADPH reduces the NBT to formazan”. Regarding `NC(=O)C1=CN([C@@H]2O[C@H](COP(=O)(O)OP(=O)(O)OC[C@H]3O[C@@H](n4cnc5c(N)ncnc54)[C@H](OP(=O)(O)O)[C@@H]3O)[C@@H](O)[C@H]2O)C=CC1` [NADPH], the “spectrophotometric NBT reduction to formazan, 550 nm” value in assay [2] (electron donor) is listed as “ceQORH protein indeed has NADPH-dependent dehydrogenase activity”.
